What was measured:
Assay type in all cases: biochemical
[1] = target: T1, human ROCK2 enzyme kinase domain (Homo sapiens, UniProt O75116); assay: fluorescence coupling (TR-FRET) enzymatic assay, ROCK2; conditions: 4 nM enzyme, 50 nM Ulight-CREBTide, one hour room temperature
T1 construct: GST; purchased Carna BioSciences 01-110
Experimental: (§1) Dose-response curves for compounds of the present invention were determined using a fluorescence coupling enzymatic assay using purified C-terminal truncated human ROCK1 catalytic domain (amino acids 1-477 of accession number NP_005397.1) fused to GST (Carna BioSciences, Catalog #01-109) and purified C-terminal truncated human ROCK2 enzyme kinase domain (amino acids 1-553 of accession number NP_004841.2) fused to GST BioSciences, Catalog #01-110). In addition, full length cGMP-dependent protein kinase 1 (PKG or PRKG1; amino acids 1-686 of accession number NP_006249.1) fused to GST (Carna BioSciences, Catalog #01-142), full length PKACα (PRKACA; amino acids 1-351 of accession number NP_002721.1) fused to GST (Carna BioSciences, Catalog #01-127), and C-terminal truncated human AKT1 catalytic domain (amino acids 104-480 of accession number NP_005154.1) fused to GST Biosciences, Catalog #01-101) were used as a control to measure any non-desired off-target kinase activity.
(§2) Briefly, compounds of the present invention were solubilized in DMSO and a series of 12, three-fold serial dilutions were made for each compound in 2.5% DMSO. The initial starting concentration for the serial dilutions of each compound was 10 μM or 100 μM. Control samples lacking compound, ROCK enzyme or ATP also were prepared and processed in parallel with compound test samples.
(§3) A 4 μL aliquot of each serial dilution of test compound diluted in H2O with 2.5% DMSO was added to a well containing 4 μL of 10 nM purified N-truncated ROCK1 (4 nM final concentration), 10 nM purified N-truncated ROCK2 enzyme (4 nM final concentration), 1.25 nM AKT1 (0.5 nM final concentration), 25 pM PKACA (10 pM final concentration) or 20 nM PKG (8 nM final concentration), in reaction buffer containing 50 mM Hepes, pH 7.5, 1 mM EGTA, 10 mM MgCl2, 2 mM DTT, and 0.01% Tween 20 (final concentration). To initiate the enzymatic reaction, 2 μL of a solution was added to each well to provide a final concentration of 50 nM Ulight-CREBTide peptide substrate (Perkin Elmer, Catalog #TRF0107) and 4 μM ATP for ROCK1 and AKT1 assays, […] for ROCK2 assays and 30 μM ATP for PKG assays, or 1 μM ATP for PKACA assays. The reaction mixtures were incubated at room temperature for one hour. After one hour, the reaction was stopped by the addition of a 10 solution of an Europium-labelled phospho-CREB (Ser133) antibody (Perkin Elmer, Catalog #TRF0200) in LANCE buffer supplemented with 20 mM EDTA. The stopped reaction mixtures were incubated at room temperature for 90 minutes. The TR-FRET 665/620 ratios were determined using a Clariostar monochromator plate reader instrument (BMG LabTech) in accordance with the manufacturer's instructions. The ICso value for each compound was determined from each dose-response curve using GraphPad Prism 7 software with a sigmodial dose response. Key: A is IC50≤100 nM; B is 100 nM<IC50<1000 nM; C is 1,000<IC50≤10,000 nM; D is IC50>10,000 nM

[2] = target: T2, human ROCK1 catalytic domain (Homo sapiens, UniProt Q13464); assay: fluorescence coupling (TR-FRET) enzymatic assay, ROCK1; conditions: 4 nM enzyme, 4 μM ATP, 50 nM Ulight-CREBTide, one hour room temperature; read-out: ROCK1 IC50
T2 construct: GST; purchased Carna BioSciences 01-109
Experimental: as §2
The reaction mixtures were incubated at room temperature for one hour. After one hour, the reaction was stopped by the addition of a 10 solution of an Europium-labelled phospho-CREB (Ser133) antibody (Perkin Elmer, Catalog #TRF0200) in LANCE buffer supplemented with 20 mM EDTA. The stopped reaction mixtures were incubated at room temperature for 90 minutes. […] The ICso value for each compound was determined from each dose-response curve using GraphPad Prism 7 software with a sigmodial dose response.

PKACα (PRKACA) = target: T3, PKACα (PRKACA) (Homo sapiens, UniProt P17612); assay: fluorescence coupling (TR-FRET) enzymatic assay, PKACA off-target control; conditions: 10 pM enzyme, 1 μM ATP, 50 nM Ulight-CREBTide, one hour room temperature
T3 construct: GST; purchased Carna BioSciences 01-127
Experimental: as §1, §2, §3

[3] = target: T4, cGMP-dependent protein kinase 1 (PKG or PRKG1) (Homo sapiens, UniProt Q13976); assay: fluorescence coupling (TR-FRET) enzymatic assay, PKG off-target control; conditions: 8 nM enzyme, 30 μM ATP, 50 nM Ulight-CREBTide, one hour room temperature
T4 construct: GST; purchased Carna BioSciences 01-142
T4 sequence (Q13976 1-686 isoform Q13976-2): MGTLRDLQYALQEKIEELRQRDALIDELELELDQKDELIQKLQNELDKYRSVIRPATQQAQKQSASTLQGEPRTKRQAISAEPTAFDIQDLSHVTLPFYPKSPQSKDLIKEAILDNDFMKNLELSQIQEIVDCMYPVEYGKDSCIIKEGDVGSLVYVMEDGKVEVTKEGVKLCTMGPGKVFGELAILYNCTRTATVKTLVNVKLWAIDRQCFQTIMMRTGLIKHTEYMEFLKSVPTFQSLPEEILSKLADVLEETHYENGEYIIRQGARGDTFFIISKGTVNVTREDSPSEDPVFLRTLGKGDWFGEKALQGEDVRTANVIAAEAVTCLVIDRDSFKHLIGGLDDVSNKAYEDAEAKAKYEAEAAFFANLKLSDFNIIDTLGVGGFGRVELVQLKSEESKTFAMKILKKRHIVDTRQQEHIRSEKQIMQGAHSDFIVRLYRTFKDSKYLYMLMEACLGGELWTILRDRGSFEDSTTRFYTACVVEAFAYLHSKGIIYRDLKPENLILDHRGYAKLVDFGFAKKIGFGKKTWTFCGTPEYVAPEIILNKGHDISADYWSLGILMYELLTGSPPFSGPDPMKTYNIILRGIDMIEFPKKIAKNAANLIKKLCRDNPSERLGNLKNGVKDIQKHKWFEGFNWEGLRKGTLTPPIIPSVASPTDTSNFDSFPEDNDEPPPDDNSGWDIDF
Experimental: as §1, §2, §3

[4] = target: T5, human AKT1 catalytic domain (Homo sapiens, UniProt P31749); assay: fluorescence coupling (TR-FRET) enzymatic assay, AKT1 off-target control; conditions: 0.5 nM enzyme, 4 μM ATP, 50 nM Ulight-CREBTide, one hour room temperature
T5 construct: GST; purchased Carna BioSciences 01-101
Experimental: as §1, §2, §3

T1 sequence (O75116 1-553): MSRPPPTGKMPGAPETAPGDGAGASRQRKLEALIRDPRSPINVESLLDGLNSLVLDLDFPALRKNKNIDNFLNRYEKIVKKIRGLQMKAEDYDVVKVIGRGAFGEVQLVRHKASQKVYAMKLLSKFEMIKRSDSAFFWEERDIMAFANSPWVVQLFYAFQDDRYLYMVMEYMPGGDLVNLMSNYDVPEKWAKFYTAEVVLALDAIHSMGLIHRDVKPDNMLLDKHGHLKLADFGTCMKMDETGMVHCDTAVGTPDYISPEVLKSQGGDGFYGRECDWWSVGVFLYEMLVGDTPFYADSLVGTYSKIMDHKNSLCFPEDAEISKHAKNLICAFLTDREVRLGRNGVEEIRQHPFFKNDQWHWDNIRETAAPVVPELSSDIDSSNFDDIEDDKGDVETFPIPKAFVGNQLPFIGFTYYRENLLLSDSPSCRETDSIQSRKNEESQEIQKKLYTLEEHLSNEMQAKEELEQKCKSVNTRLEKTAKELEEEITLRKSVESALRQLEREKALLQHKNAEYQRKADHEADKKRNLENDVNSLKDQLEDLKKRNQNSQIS
T2 sequence (Q13464 1-477): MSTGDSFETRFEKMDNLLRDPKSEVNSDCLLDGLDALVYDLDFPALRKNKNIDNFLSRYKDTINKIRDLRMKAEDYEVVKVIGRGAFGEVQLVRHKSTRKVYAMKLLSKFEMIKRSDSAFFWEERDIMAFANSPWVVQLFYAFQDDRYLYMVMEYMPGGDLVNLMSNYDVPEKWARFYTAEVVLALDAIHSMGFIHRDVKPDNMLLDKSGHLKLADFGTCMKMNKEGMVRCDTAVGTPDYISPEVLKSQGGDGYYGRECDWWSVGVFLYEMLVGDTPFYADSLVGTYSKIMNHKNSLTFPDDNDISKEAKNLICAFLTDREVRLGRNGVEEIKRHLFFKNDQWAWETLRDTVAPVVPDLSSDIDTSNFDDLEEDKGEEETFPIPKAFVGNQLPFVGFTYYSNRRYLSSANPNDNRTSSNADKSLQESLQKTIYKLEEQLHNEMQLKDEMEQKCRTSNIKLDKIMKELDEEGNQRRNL
T5 sequence (P31749 104-480): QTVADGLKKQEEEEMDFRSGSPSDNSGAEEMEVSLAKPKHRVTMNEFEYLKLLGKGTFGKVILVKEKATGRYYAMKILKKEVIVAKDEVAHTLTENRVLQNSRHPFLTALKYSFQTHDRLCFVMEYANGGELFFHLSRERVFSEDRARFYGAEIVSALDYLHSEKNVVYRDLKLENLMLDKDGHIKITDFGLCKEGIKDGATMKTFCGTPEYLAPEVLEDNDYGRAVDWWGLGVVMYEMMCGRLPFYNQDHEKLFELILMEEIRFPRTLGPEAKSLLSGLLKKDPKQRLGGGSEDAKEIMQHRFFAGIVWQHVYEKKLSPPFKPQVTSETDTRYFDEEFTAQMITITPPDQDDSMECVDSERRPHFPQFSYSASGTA

Row | SMILES | IC50 [1] | IC50 [2] | IC50 (PKACα (PRKACA)) | IC50 [3] | IC50 [4]
1 | O=S(=O)(c1cccc2c(O)ncc(F)c12)N1CCc2ccc(Cl)cc21 [Example 21, 5-((6-Chloroindolin-1-yl)sulfonyl)-4-fluoroisoquinolin-1-ol] | > 10 µM | > 10 µM | > 10 µM | > 10 µM | > 10 µM
2 | CCNc1cc(C#N)cc2c1CCN2S(=O)(=O)c1cccc2c(=O)[nH]cc(Cl)c12 [Example 44, 1-((4-chloro-1-oxo-1,2-dihydroisoquinolin-5-yl)sulfonyl)-4-(ethylamino)indoline-6-carbonitrile] | 1 to 10 µM | 1 to 10 µM | > 10 µM | > 10 µM | > 10 µM
3 | N#Cc1cnc2c(c1)N(S(=O)(=O)c1cccc3c(=O)[nH]cc(Cl)c13)CC2 [Example 40, 1-((4-chloro-1-oxo-1,2-dihydroisoquinolin-5-yl)sulfonyl)-2,3-dihydro-1H-pyrrolo[3,2-b]pyridine-6-carbonitrile] | < 0.1 µM | < 0.1 µM | > 10 µM | > 10 µM | > 10 µM
4 | N#Cc1ccc2c(c1)N(S(=O)(=O)c1cccc3c(=O)[nH]cc(Cl)c13)CC2 [Example 27, 1-((4-chloro-1-oxo-1,2-dihydroisoquinolin-5-yl)sulfonyl)indoline-6-carbonitrile] | < 0.1 µM | < 0.1 µM | 1 to 10 µM | > 10 µM | 1 to 10 µM
5 | CNc1cc(C#N)cc2c1CCN2S(=O)(=O)c1cccc2c(=O)[nH]cc(Cl)c12 [Example 42, 1-((4-chloro-1-oxo-1,2-dihydroisoquinolin-5-yl)sulfonyl)-4-(methylamino)indoline-6-carbonitrile] | < 0.1 µM | 0.1 to 1 µM | > 10 µM | > 10 µM | > 10 µM
6 | N#Cc1ccc2c(c1)N(S(=O)(=O)c1cccc3c(=O)[nH]ncc13)CC2 [Example 26, 1-((1-Oxo-1,2-dihydrophthalazin-5-yl)sulfonyl)indoline-6-carbonitrile] | 0.1 to 1 µM | 0.1 to 1 µM | > 10 µM | > 10 µM | > 10 µM
7 | O=c1[nH]ncc2c(S(=O)(=O)N3CCc4ccc(Cl)cc43)cccc12 [Example 25, 5-((6-Chloroindolin-1-yl)sulfonyl)phthalazin-1 (2H)-one] | 1 to 10 µM | 1 to 10 µM | > 10 µM | > 10 µM | > 10 µM
8 | N#Cc1cc(N)c2c(c1)N(S(=O)(=O)c1cccc3c(=O)[nH]cc(Cl)c13)CC2 [Example 36, 4-amino-1-((4-chloro-1-oxo-1,2-dihydroisoquinolin-5-yl)sulfonyl)indoline-6-carbonitrile] | < 0.1 µM | < 0.1 µM | > 10 µM | 1 to 10 µM | > 10 µM
9 | CNc1cc(C#N)cc2c1CCN2S(=O)(=O)c1cccc2c(=O)[nH]cc(C)c12 [Example 41, 1-((4-methyl-1-oxo-1,2-dihydroisoquinolin-5-yl)sulfonyl)-4-(methylamino)indoline-6-carbonitrile] | 0.1 to 1 µM | 0.1 to 1 µM | > 10 µM | > 10 µM | > 10 µM

The remaining lines, values ahead:

Row | IC50 [1] | IC50 [2] | IC50 (PKACα (PRKACA)) | IC50 [3] | IC50 [4] | SMILES
10 | < 0.1 µM | < 0.1 µM | 1 to 10 µM | > 10 µM | 1 to 10 µM | CC(=O)Nc1cc(C#N)cc2c1CCN2S(=O)(=O)c1cccc2c(=O)[nH]ccc12 [Example 30, N-(6-cyano-1-((1-oxo-1,2-dihydroisoquinolin-5-yl)sulfonyl)indolin-4-yl)acetamide]
11 | 1 to 10 µM | 1 to 10 µM | > 10 µM | > 10 µM | > 10 µM | Cc1cccc2c1CCN2S(=O)(=O)c1cccc2c(=O)[nH]ccc12 [Example 1, 5-((4-Methylindolin-1-yl)sulfonyl)isoquinolin-1 (2H)-one]
12 | 0.1 to 1 µM | 0.1 to 1 µM | > 10 µM | > 10 µM | > 10 µM | N#Cc1cnc2c(c1)N(S(=O)(=O)c1cccc3c(=O)[nH]ccc13)CC2 [Example 38, 1-((1-oxo-1,2-dihydroisoquinolin-5-yl)sulfonyl)-2,3-dihydro-1H-pyrrolo[3,2-b]pyridine-6-carbonitrile]
13 | 1 to 10 µM | 1 to 10 µM | > 10 µM | > 10 µM | > 10 µM | CC(O)c1cccc2c1CCN2S(=O)(=O)c1cccc2c(=O)[nH]ccc12 (stereo not drawn) [Example 11, 5-((4-(1-Hydroxyethyl)indolin-1-yl)sulfonyl)isoquinolin-1 (2H)-one]
14 | > 10 µM | > 10 µM | > 10 µM | > 10 µM | > 10 µM | O=c1[nH]ccc2c(S(=O)(=O)N3CCc4c(C5CC5)cccc43)cccc12 [Example 9, 5-((4-Cyclopropylindolin-1-yl)sulfonyl)isoquinolin-1 (2H)-one]
15 | < 0.1 µM | < 0.1 µM | 1 to 10 µM | > 10 µM | > 10 µM | N#Cc1cc(N)c2c(c1)N(S(=O)(=O)c1cccc3c(=O)[nH]ccc13)CC2 [Example 31, 4-amino-1-((1-oxo-1,2-dihydroisoquinolin-5-yl)sulfonyl)indoline-6-carbonitrile]
